Drawing on US8802704B2, “Oxadiazole derivatives” (Merck Serono SA, priority 2009, dated 2014), this text covers EC50 and Ki for 17 compounds.

Molecules are shown by their SMILES. Read-outs that look alike come from different tables or passages of the source.

As usually defined, the EC50 is the concentration that produces a half-maximal response. Low values mean greater potency, high ones weaker potency. For orientation: Ki means the equilibrium dissociation constant of an inhibitor or competing ligand from its target.

The target of experiment [1] is T1, S1P1 (Homo sapiens, UniProt P21453). The experiment is described as follows: S1P1 internalization assay in S1P1-U2OS cells (cell imaging). Conditions: U2OS cells expressing S1P1-EGFP, 1 hour. The format is cell-based. Here is the method: Cellular functional assays: Internalization of Sphingosine-1-phosphate receptor 1 (S1P1) in a human Cell line (U2OS) in a 384-well format using a Cell Imaging analysis.
The S1P1 internalization assay was performed in 384 well plates (Corning® 384 black with clear bottom 3712) using S1P1-U2OS cells from Biolmage (C039A), a human epithelial cell line (Human Bone Osteosarcoma Epithelial Cells). These cells expressed the human S1P1 Receptor fused to the green fluorescent protein (EGFP). A standard CMV promoter (cytomegalovirus promoter) controls the expression of S1P1-EGFP and continuous expression was maintained by addition of geneticin to the culture medium.
S1P1Receptor desensitization induced the internalization of the membrane-localized S1P1-EGFP fusion protein to endosomes, which can be monitored by cell imaging analysis. The cells are plated in low serum medium (Dulbecco's Modified Eagle Medium (DMEM) with Glutamax-1 and high glucose, 1% Penicillin/Streptomycin, 1% Fetal Calf Serum (FCS), 0.5 mg/ml Geneticin) overnight.
The next day, S1P1-U2OS cells are incubated in 20 μl serum free medium (DMEM with Glutamax-1 and high glucose, 0.1% of fatty-acid free Bovin Serum Albumin (BSA), 10 mM, N′-2-Hydroxyethylpiperazine-N′-2 ethanesulphonic acid (HEPES) 1M) for 2 hours at 37° C./5% CO2. The cells are then treated with 4 μl compounds/agonists (6×/3% DMSO) for a total volume of 24 μl, and plates are incubated for 1 hour at 37° C./5% CO2.
S1P1-U2OS cells are fixed with 25 μl Paraformaldehyde 8% and stained with Hoechst 33345 dye (1:1000) for 20 minutes.
They were then washed 3 times with Phosphate Buffered Saline (PBS) and plates are sealed. The internalization of the receptor S1P1-EGFP is measured on Cellomics by calculating the “spot count per object” (“object” corresponds to nuclear and “spot” corresponds to S1P1-EGFP receptor). Internalization data were observed thanks to vHCS View and analyzed using Genedata® software.
Target sequence in this assay (P21453 whole entry, the tested form may be a part): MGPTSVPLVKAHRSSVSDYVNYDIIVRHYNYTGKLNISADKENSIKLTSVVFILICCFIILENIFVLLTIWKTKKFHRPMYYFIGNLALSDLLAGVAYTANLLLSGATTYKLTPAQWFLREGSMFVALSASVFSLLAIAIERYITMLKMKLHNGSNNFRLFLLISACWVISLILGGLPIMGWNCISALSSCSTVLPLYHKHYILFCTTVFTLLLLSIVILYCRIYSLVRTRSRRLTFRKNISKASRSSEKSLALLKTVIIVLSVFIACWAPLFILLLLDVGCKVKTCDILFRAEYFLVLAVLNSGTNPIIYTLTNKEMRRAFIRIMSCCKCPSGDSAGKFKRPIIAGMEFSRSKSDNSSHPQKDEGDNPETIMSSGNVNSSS

The next experiment deals with S1P3 (Homo sapiens, UniProt Q99500). The experiment is described as follows: Receptor binding assay, [33P]sphingosine 1-phosphate competition (SPA), S1P3. On the procedure:
Membranes were prepared from CHO cells expressing S1P1 or S1P3 for use in ligand and […] binding studies. Cells were suspended in 50 mM TRIS, pH 7.4, 2 mM EDTA, 250 mM Sucrose (buffer A) and 1× Complete protease inhibitor cocktail (Roche), and disrupted at 4° C. by N2 decompression using a cell disruption bomb (Parr Instrument). Following centrifugation at 1000 RPM for 10 min at 4° C., the supernatant was diluted (2×) in buffer A and centrifuged again at 19000 RPM for 75 min at 4° C. The pellet was then suspended in 10 mM HEPES, pH 7.4, 1 mM EDTA, 250 mM Sucrose (Buffer B), and 1× Complete EDTA-free protease inhibitor cocktail and homogenized using a potter. Membranes were flash frozen in liquid N2 and stored at −80° C.
[33P]sphingosine 1-phosphate (3000 Ci/mmol; American Radiolabeled Chemicals, Inc.) was added to test compounds in 20% DMSO by competition. Membranes and WGA SPA beads (GE Healthcare) were added to give a final volume of 100 μl in 96-well plates or 50 μl in 384-well plates with assay concentrations of 30 pM or 15 pM [33P]sphingosine 1-phosphate (respectively for S1P1 or S1P3), 50 mM HEPES, pH 7.5, 5 mM MgCl2, 100 mM NaCl, 0.4% fatty acid-free BSA, 1-5 μg/well of proteins in 96-well plates vs 0.6-1 μg/well of proteins in 384-well plates and 100 μg/well of WGA SPA beads in 96-well plates vs 75 μg/well of WGA SPA beads in 384-well plates. Binding was performed for 60 min at RT on a shaker and bound radioactivity was measured on a PerkinElmer 1450 MicroBeta counter. Triplicate samples were averaged and normalized as percentage of inhibition relative to total binding (only DMSO in well) and non-specific binding (1000-fold excess of unlabeled S1P). Binding data were analyzed using the GraphPad Prism program or Genedata software.

Experiment [2] has as its target T1, S1P1. The experiment is described as follows: Receptor binding assay, [33P]sphingosine 1-phosphate competition (SPA), S1P1. On the procedure: Cells were suspended in 50 mM TRIS, pH 7.4, 2 mM EDTA, 250 mM Sucrose (buffer A) and 1× Complete protease inhibitor cocktail (Roche), and disrupted at 4° C. by N2 decompression using a cell disruption bomb (Parr Instrument). […] The pellet was then suspended in 10 mM HEPES, pH 7.4, 1 mM EDTA, 250 mM Sucrose (Buffer B), and 1× Complete EDTA-free protease inhibitor cocktail and homogenized using a potter. Membranes were flash frozen in liquid N2 and stored at −80° C.
[33P]sphingosine 1-phosphate (3000 Ci/mmol; American Radiolabeled Chemicals, Inc.) was added to test compounds in 20% DMSO by competition. […] Triplicate samples were averaged and normalized as percentage of inhibition relative to total binding (only DMSO in well) and non-specific binding (1000-fold excess of unlabeled S1P). Binding data were analyzed using the GraphPad Prism program or Genedata software.
Target sequence in this assay (P21453 whole entry, species assumed, the tested form may be a part): as the sequence (P21453 whole entry, the tested form may be a part) above

The mark [3] stands for this setting: 96 well-plate, read-out: S1P3 binding Ki (M) (96 well-plate).
Setting [4] is: 384 well-plate, read-out: S1P3 binding Ki (M) (384 well-plate).
Setting [5] is: 96 well-plate, read-out: S1P1 binding Ki (M) (96 well-plate).
[6] abbreviates: 384 well-plate, read-out: S1P1 binding Ki (M) (384 well-plate).

Chain of S1P3 (Q99500 whole entry, species assumed): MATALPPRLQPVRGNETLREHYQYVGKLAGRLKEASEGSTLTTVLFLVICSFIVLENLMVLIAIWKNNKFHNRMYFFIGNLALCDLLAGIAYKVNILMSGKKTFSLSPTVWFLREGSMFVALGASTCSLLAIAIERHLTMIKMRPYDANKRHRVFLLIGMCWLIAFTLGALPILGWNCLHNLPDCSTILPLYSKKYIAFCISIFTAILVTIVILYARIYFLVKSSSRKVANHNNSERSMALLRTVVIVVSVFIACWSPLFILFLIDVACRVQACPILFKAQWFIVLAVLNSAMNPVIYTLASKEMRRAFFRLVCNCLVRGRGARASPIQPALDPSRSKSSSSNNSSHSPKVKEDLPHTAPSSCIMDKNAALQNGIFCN

`COCc1cc(-c2nc(-c3cccc(CN(C)CC(=O)O)c3)no2)ccc1-c1ccccc1C(F)(F)F` [Example 49, N-(3-{5-[2-(methoxymethyl)-2′-(trifluoromethyl)biphenyl-4-yl]-1,2,4-oxadiazol-3-yl}benzyl)-N-methylglycine] registered an EC50 on S1P1 [1] of 0.0113 µM. Further, the Ki came out at 1.5e-06 M at S1P3 (setting [3]), 1.41e-06 M on S1P3 (setting [4]), 8.7e-10 M at S1P1 [2] (setting [5]) and 2.35e-09 M on S1P1 [2] (setting [6]).

For the compound `COCc1cc(-c2nc(-c3cccc(CN(C)CC(=O)O)c3)no2)ccc1-c1ccc(F)cc1C(F)(F)F` [Example 50, N-(3-{5-[4′-fluoro-2-(methoxymethyl)-2′-(trifluoromethyl)biphenyl-4-yl]-1,2,4-oxadiazol-3-yl}benzyl)-N-methylglycine], on S1P1 [1], the EC50 turned out to be 0.0253 µM. The Ki on S1P3 (setting [3]) was determined as 7.71e-07 M; at S1P3 (setting [4]) it was 1.18e-06 M; at S1P1 [2] (setting [5]), 8.49e-10 M; at S1P1 [2] (setting [6]), 1.24e-08 M.

On to `Cc1ccccc1-c1ccc(-c2nc(-c3cc(F)cc(CN(C)CC(=O)O)c3)no2)cc1C(F)(F)F` [Example 64, N-(3-fluoro-5-{5-[2′-methyl-2-(trifluoromethyl)biphenyl-4-yl]-1,2,4-oxadiazol-3-yl}benzyl)-N-methylglycine], for which it took 0.00811 µM to reach a half-maximal effect at S1P1 [1] (EC50). The Ki at S1P3 (setting [3]) worked out at 3.68e-08 M; at S1P1 [2] (setting [5]), 2.96e-10 M.

Compound `CN(CC(=O)O)Cc1cc(F)cc(-c2noc(-c3ccc(-c4ccccc4)c(C(F)(F)F)c3)n2)c1` [Example 67] came in with an EC50 at S1P1 [1] of 0.0119 µM. Besides, the Ki at S1P3 (setting [3]) came out at 3.69e-08 M; at S1P1 [2] (setting [5]) it was 2.31e-10 M.

`CN(CC(=O)O)Cc1cccc(-c2noc(-c3ccc(-c4ccccc4)c(C(F)(F)F)c3)n2)c1` [Example 68]: the EC50 at S1P1 [1] was determined as 0.0112 µM. Moreover, the figures for the Ki at S1P3 (setting [3]) and on S1P1 [2] (setting [5]) were 1.09e-07 M and 3.57e-10 M, respectively.

Compound `CCN(CCC(=O)O)Cc1cccc(-c2noc(-c3ccc(-c4ccccc4C)c(C(F)(F)F)c3)n2)c1` [Example 69, N-ethyl-N-(3-{5-[2′-methyl-2-(trifluoromethyl)biphenyl-4-yl]-1,2,4-oxadiazol-3-yl}benzyl)-beta-alanine] came in with an EC50 on S1P1 [1] of 0.00897 µM. The Ki stood at 4.67e-08 M at S1P3 (setting [3]), 2.21e-10 M at S1P1 [2] (setting [5]) and 1.47e-09 M on S1P1 [2] (setting [6]).

In the case of `Cc1ccccc1-c1ccc(-c2nc(-c3ccc(CN(C)CCC(=O)O)c(F)c3)no2)cc1C(F)(F)F` [Example 71, N-(2-fluoro-4-{5-[2′-methyl-2-(trifluoromethyl)biphenyl-4-yl]-1,2,4-oxadiazol-3-yl}benzyl)-N-methyl-beta-alanine], the Ki on S1P3 (setting [3]) amounted to 1.31e-07 M.

In turn, `Cc1ccccc1-c1ccc(-c2nc(-c3ccc(CN(C)CCC(=O)O)cc3)no2)cc1C(F)(F)F` [Example 72] registered an EC50 at S1P1 [1] of 0.00205 µM. Also, the Ki at S1P3 (setting [3]) came out at 1.88e-07 M; at S1P1 [2] (setting [5]), 2.7e-10 M.

In the case of `Cc1ccccc1-c1ccc(-c2nc(-c3ccc(CN(C)CC(=O)O)cc3)no2)cc1C(F)(F)F` [Example 81, N-methyl-N-(4-{5-[2′-methyl-2-(trifluoromethyl)biphenyl-4-yl]-1,2,4-oxadiazol-3-yl}benzyl)glycine], the EC50 at S1P1 [1] stood at 0.0114 µM. Besides, the Ki stood at 8.31e-07 M on S1P3 (setting [3]), 8.55e-07 M on S1P3 (setting [4]), 4.12e-10 M on S1P1 [2] (setting [5]) and 2.74e-09 M at S1P1 [2] (setting [6]).

Consider `CN(CC(=O)O)Cc1ccc(-c2noc(-c3ccc(-c4ccccc4F)c(C(F)(F)F)c3)n2)cc1` [Example 89, N-(4-{5-[2′-fluoro-2-(trifluoromethyl)biphenyl-4-yl]-1,2,4-oxadiazol-3-yl}benzyl)-N-methylglycine], for which the EC50 at S1P1 [1] turned out to be 0.00653 µM. Besides, the Ki on S1P3 (setting [3]) worked out at 6.29e-07 M; on S1P3 (setting [4]), 5.69e-07 M; on S1P1 [2] (setting [5]), 3.49e-10 M; on S1P1 [2] (setting [6]), 1.19e-09 M.

On S1P1 [1], `COCc1cc(-c2nc(-c3ccc(CN(C)CC(=O)O)c(F)c3)no2)ccc1-c1ccccc1C(F)(F)F` [Example 95, N-(2-fluoro-4-{5-[2-(methoxymethyl)-2′-(trifluoromethyl)biphenyl-4-yl]-1,2,4-oxadiazol-3-yl}benzyl)-N-methylglycine] showed an EC50 of 0.0139 µM. Besides, the Ki at S1P3 (setting [3]) was 6.5e-07 M; at S1P3 (setting [4]), 1.03e-06 M; on S1P1 [2] (setting [5]), 4.26e-10 M; on S1P1 [2] (setting [6]) it was 3.67e-09 M.

As for `COCc1cc(-c2nc(-c3ccc(CN(C)CC(=O)O)cc3)no2)ccc1-c1ccccc1C(F)(F)F` [Example 97, N-(4-{5-[2-(methoxymethyl)-2′-(trifluoromethyl)biphenyl-4-yl]-1,2,4-oxadiazol-3-yl}benzyl)-N-methylglycine], at S1P1 [1], the EC50 was found to be 0.012 µM. The Ki is 1.57e-06 M at S1P3 (setting [3]), 2.22e-06 M at S1P3 (setting [4]) and 2.08e-09 M at S1P1 [2] (setting [6]).

On to `Cc1cc(-c2nc(-c3ccc(CN(C)CC(=O)O)cc3)no2)ccc1-c1ccccc1C(F)(F)F` [Example 100, N-methyl-N-(4-{5-[2-methyl-2′-(trifluoromethyl)biphenyl-4-yl]-1,2,4-oxadiazol-3-yl}benzyl)glycine], for which the EC50 at S1P1 [1] is 0.0561 µM. The Ki on S1P3 (setting [3]) is 9.43e-06 M; on S1P3 (setting [4]) it was 9.67e-06 M; at S1P1 [2] (setting [5]) it was 1.04e-09 M; at S1P1 [2] (setting [6]), 3.49e-09 M.

`CCc1ccccc1-c1ccc(-c2nc(-c3ccc(CN(C)CC(=O)O)c(F)c3)no2)cc1C(F)(F)F` [Example 110, N-(4-{5-[2′-ethyl-2-(trifluoromethyl)biphenyl-4-yl]-1,2,4-oxadiazol-3-yl}-2-fluorobenzyl)-N-methylglycine] displayed an EC50 on S1P1 [1] of 0.0567 µM. Besides, on S1P1 [2] (setting [6]), the Ki was 6.22e-09 M.

Consider `Cc1ccccc1-c1ccc(-c2nc(-c3ccc(Cl)c(CN(C)CC(=O)O)c3)no2)cc1C(F)(F)F` [Example 111, N-(2-chloro-5-{5-[2′-methyl-2-(trifluoromethyl)biphenyl-4-yl]-1,2,4-oxadiazol-3-yl}benzyl)-N-methylglycine], for which, on S1P1 [1], a half-maximal response (EC50) required 0.0459 µM. At S1P1 [2] (setting [6]), the Ki was 3.68e-09 M.

On S1P1 [1], `Cc1ccccc1-c1ccc(-c2nc(-c3cccc(CN(CC(=O)O)C(C)C)c3)no2)cc1C(F)(F)F` [Example 117, (Isopropyl-{3-[5-(2′-methyl-2-trifluoromethyl-biphenyl-4-yl)-[1,2,4]oxadiazol-3-yl]-benzyl}-amino)-acetic acid] came in with a concentration giving a half-maximal response (EC50) of 0.0504 µM. Further, on S1P1 [2] (setting [6]), the Ki was 3.24e-09 M.

As to `CN(CC(=O)O)Cc1ccc(-c2noc(-c3ccc(-c4ccccc4C(F)(F)F)c(Cl)c3)n2)cc1` [Example 135], the EC50 at S1P1 [1] amounted to 0.0261 µM. Besides, the inhibition constant (Ki) at S1P1 [2] (setting [6]) came out at 2.63e-09 M.
